Experimental data from patent US20240116889A1, “ANTIVIRAL COMPOUNDS AND METHODS” (priority 2019, published 2024).

Tests used:
USSR H1N1 virus [1] = type: cell-based, influenza A virus (A/USSR/77)
pdm H1N1 virus = type: cell-based, influenza A virus (A/California/07/2009)
human coronavirus OC43 = type: cell-based; conditions: MRC-5 cells; TG 0.05 or 0.5 μM 30 min pre-infection; HC pre-infection or continuous
SARS-CoV-2 = SARS-CoV-2 replication in Calu-3 cells (RT-qPCR of media); type: cell-based; conditions: Calu-3 cells; […]; HC primed and continuously present
NPTr cells = conditions: for cell viability after priming: 30 min priming at doses used for infection studies
USSR H1N1 virus [2] = type: cell-based, influenza A virus (A/USSR/77); remark: listed apart in the source
A549 cells = assay: Cell viability of A549 cells (CellTiter-Glo 2.0); type: cell-based, human; conditions: RDV continuous, TG 30 min, overnight
Procedure: (A) A549 cells were primed with indicated TG, 0.3 μM RDV or DMSO control for 30 min, washed twice with PBS and infected with 0.01 MOI of CoV OC43 for 2 h, after which cells were washed again with PBS and incubated in fresh infection media (OptiMEM supplemented with 0.1 μg/ml TPCK-trypsin for TG primed cells, or fresh media in the continuous presence of RDV. At 24, 48 and 72 hpi, viral RNA extraction was performed on collected supernatants followed by one-step reverse transcription qPCR to detect the relative copy number of hCoV OC43 replicase polyprotein lab RNA, based on relative Ct method. Indicated significance relative to corresponding RDV-treated cells based on 2-way ANOVA Tukey's multiple comparisons test. (B) As in (A), A549 cells were primed continuously with RDV, or for 30 min with indicated TG or DMSO, washed, cultured overnight and subjected to cell viability assay (CellTiter-Glo 2.0 Cell Viability Assay, Promega).

RIG-I, OAS1 and PKR = type: cell-based, pig; conditions: NPTr cells (TG also NHBE cells and myoblasts); priming before or during infection
[3] = system: extracellular Ca^2+ influx; assay: Intracellular Ca2+ monitoring assay (Fluo-8) in NPTr cells; type: cell-based, pig
[4] = system: RSV (A2 strain, ATCC VR-1540); assay: RSV production from infected HEp2 cells (immuno-detection / RT-qPCR); type: cell-based, human respiratory syncytial virus; conditions: HEp-2 cells; TG 30 min priming, Riba continuously present; four days post-infection

C[C@@H]1CC[C@H]2[C@@H](C)C(=O)O[C@@H]3O[C@@]4(C)CC[C@@H]1[C@]32OO4 [artemisinin]
progeny virus output vs DMSO control (USSR H1N1 virus [1]): reduces progeny viral output
progeny virus output vs DMSO control (pdm H1N1 virus): reduces progeny viral output

CCN(CCO)CCCC(C)Nc1ccnc2cc(Cl)ccc12 (stereo not drawn) [HC, hydroxychloroquine, reference compound]
hCoV OC43 replication / progeny production (human coronavirus OC43): required its continuous presence during infection
SARS-CoV-2 replication (SARS-CoV-2): no consistent effect

COc1ccc(OC)c(-c2ccc(NC(=O)c3ccncc3F)cc2)c1 [Synta66]
progeny virus output vs DMSO control (USSR H1N1 virus [1]): small increase in progeny virus release
cell viability after priming (NPTr cells): Non-toxic

Cc1nnsc1C(=O)Nc1ccc(-n2nc(C(F)(F)F)cc2C(F)(F)F)cc1 [BTP2]
progeny virus output vs DMSO control (USSR H1N1 virus [1]): small increase in progeny virus release
cell viability after priming (NPTr cells): Non-toxic

CC1=C2CC[C@@H](C)[C@H]2[C@H]2[C@@H](CC1)C2(C)C [(+)-ledene, reference compound]
progeny virus output (USSR H1N1 virus [2]): dramatic reduction in progeny virus output
progeny virus output vs DMSO control (USSR H1N1 virus [1]): reduced virus production like that of TG

CC1=C2[C@H](/C=C(\C)C(=O)O)CC[C@@H](C)[C@H]2CC1 [valerenic acid]
progeny virus output vs DMSO control (USSR H1N1 virus [1]): reduced USSR H1N1 virus production like that of TG

CCC(CC)COC(=O)[C@H](C)N[P@](=O)(OC[C@H]1O[C@@](C#N)(c2ccc3c(N)ncnn23)[C@H](O)[C@@H]1O)Oc1ccccc1 [RDV, remdesivir, reference compound]
cell viability (A549 cells): no adverse effect on cell viability

tunicamycin
progeny virus output vs DMSO control (USSR H1N1 virus [1]): only slightly reduced virus production
virus production relative to correspondingly infected TG primed cells (USSR H1N1 virus [1]; NPTr cells, […]): 7.5 times
progeny virus output vs DMSO control (pdm H1N1 virus): only slightly reduced virus production
virus production relative to correspondingly infected TG primed cells (pdm H1N1 virus; NPTr cells, […]): 2.8 times
expression of type I IFN associated genes in response to infection (RIG-I, OAS1 and PKR): little change in the expression of type I IFN associated genes
extracellular Ca^2+ influx ([3]; non-toxic doses (CPA up to 5 μM; TG 10 min)): did not induce Ca^2+ influx
cell viability after priming (NPTr cells): did not affect cell viability

NC(=O)c1ncn([C@@H]2O[C@H](CO)[C@@H](O)[C@H]2O)n1 [Riba, ribavirin, reference compound]
RSV progeny virus production, viral M-gene RNA [4]: significantly inhibited

C=C1C(=O)O[C@@H]2[C@H]3C(C)=CC(=O)C3=C(C)CC[C@@H]12 [dehydroleucodine, reference compound]
progeny virus output (USSR H1N1 virus [2]): reduced progeny virus output
progeny virus output vs DMSO control (USSR H1N1 virus [1]): reduced virus production like that of TG

CC(=O)C1=C(O)[C@@H]2[C@H]3c4c[nH]c5cccc(c45)C[C@H]3C(C)(C)N2C1=O [CPA, Cyclopiazonic acid]
concentration from which Ca^2+ influx was detected [3]: ≥ 10 µM
reduction in ATP production (NPTr cells; 5 μM CPA for 30 min, 24 h incubation): 8.3%
